Test results taken from ChEMBL document CHEMBL4145614, “Cyclopeptides from the Sponge Stylissa flabelliformis” (J Nat Prod, 2018).
Where a SMILES comes first, the peptide text is derived from it.

Legend:
[1] = test system: HCT-116; assay: Cytotoxicity against human HCT116 cells after 72 hrs by sulforhodamine B assay; assay type: functional, cell-based; conditions: Homo sapiens, HCT-116, 72 h
[2] = test system: K562; assay: Cytotoxicity against human K562 cells after 72 hrs by sulforhodamine B assay; assay type: functional, cell-based; conditions: Homo sapiens, K562, 72 h
[3] = test system: MDA-MB-231; assay: Cytotoxicity against human MDA-MB-231 cells after 72 hrs by sulforhodamine B assay; assay type: functional, cell-based; conditions: Homo sapiens, MDA-MB-231, 72 h
[4] = test system: SK-HEP1; assay: Cytotoxicity against human SKHEP1 cells after 72 hrs by sulforhodamine B assay; assay type: functional, cell-based; conditions: Homo sapiens, SK-HEP1, 72 h
[5] = test system: SNU-638; assay: Cytotoxicity against human SNU638 cells after 72 hrs by sulforhodamine B assay; assay type: functional, cell-based; conditions: Homo sapiens, SNU-638, 72 h
[6] = biological target: Sodium/potassium-transporting ATPase; assay: Inhibition of potassium-activated sodium/potassium ATPase in human placenta using 3-O-methylfluorescein phosphate as substrate measured for 90 secs by fluorescence assay
[7] = Inhibition of recombinant bacterial sortase A using Dabcyl-QALPETGEE-Edans as substrate measured after 1 hr by fluorescence assay; set-up: species or system Bacteria
[8] = test system: Staphylococcus aureus; assay: Antibacterial activity against Staphylococcus aureus ATCC 6538P measured after 24 hrs; assay type: functional
[9] = test system: Bacillus spizizenii; assay: Antibacterial activity against Bacillus subtilis ATCC 6633 measured after 24 hrs; assay type: functional; conditions: ATCC 6633, 24 h
[10] = test system: Micrococcus luteus; assay: Antibacterial activity against Micrococcus luteus IFC 12708 measured after 24 hrs; assay type: functional; conditions: IFC 12708, 24 h
[11] = test system: Proteus vulgaris; assay: Antibacterial activity against Proteus vulgaris ATCC 3851 measured after 24 hrs; assay type: functional; conditions: ATCC 3851, 24 h
[12] = test system: Salmonella typhimurium; assay: Antibacterial activity against Salmonella typhimurium ATCC 14028 measured after 24 hrs; assay type: functional, Salmonella enterica subsp. enterica serovar Typhimurium; conditions: Salmonella enterica, ATCC 14028, 24 h
[13] = test system: Escherichia coli; assay: Antibacterial activity against Escherichia coli ATCC 25922 measured after 24 hrs; assay type: functional; conditions: ATCC 25922, 24 h
[14] = test system: Candida albicans; assay: Antifungal activity against Candida albicans ATCC 10231 measured after 48 to 72 hrs; assay type: functional
[15] = test system: Aspergillus fumigatus; assay: Antifungal activity against Aspergillus fumigatus HIC 6094 measured after 48 to 72 hrs; assay type: functional
[16] = test system: Trichophyton rubrum; assay: Antifungal activity against Trichophyton rubrum IFO 9185 measured after 48 to 72 hrs; assay type: functional
[17] = test system: Trichophyton mentagrophytes; assay: Antifungal activity against Trichophyton mentagrophytes IFO 40996 measured after 48 to 72 hrs; assay type: functional
[18] = test system: A549; assay: cells; conditions: Homo sapiens, A549, 72 h
Description: Cytotoxicity against human A549 cells after 72 hrs by sulforhodamine B assay

Row | Compound | IC50 [1] | IC50 [2] | IC50 [3] | IC50 [4] | IC50 [5] | IC50 [6] | IC50 [7] | MIC [8] | MIC [9] | MIC [10] | MIC [11] | MIC [12] | MIC [13] | MIC [14] | MIC [15] | MIC [16] | MIC [17] | IC50 [18]
1 | CC[C@H](C)[C@@H]1NC(=O)[C@H](C)NC(=O)[C@H](CC(C)C)NC(=O)[C@@H]2CCCN2C(=O)[C@H](CC(=O)O)NC(=O)[C@H](Cc2ccc(O)cc2)NC(=O)[C@@H]2CCCN2C1=O (HELM PEPTIDE1{A.I.P.Y.D.P.L}$PEPTIDE1,PEPTIDE1,1:R1-7:R2$$$V2.0) | > 50 µM | > 50 µM | > 50 µM | > 50 µM | > 50 µM | > 100 µM | > 100 µM | > 128 µM | > 128 µM | > 128 µM | > 128 µM | > 128 µM | > 128 µM | > 128 µM | > 128 µM | > 128 µM | > 128 µM | > 50 µM
2 | CC[C@H](C)[C@@H]1NC(=O)[C@@H]2CCCN2C(=O)[C@@H]2CCCN2C(=O)[C@H](C(C)C)NC(=O)[C@H](Cc2ccc(O)cc2)NC(=O)[C@@H]2CCCN2C(=O)[C@@H]2CCCN2C(=O)[C@H](CC(C)C)NC(=O)[C@H](C(C)C)NC(=O)[C@H](Cc2ccccc2)NC1=O (HELM PEPTIDE1{F.V.L.P.P.Y.V.P.P.I}$PEPTIDE1,PEPTIDE1,1:R1-10:R2$$$V2.0) | 1 µM | 1.1 µM | 8.6 µM | 12 µM | 2.2 µM | > 100 µM | > 100 µM | > 128 µM | > 128 µM | > 128 µM | > 128 µM | > 128 µM | > 128 µM | > 128 µM | > 128 µM | > 128 µM | > 128 µM | 1.4 µM
3 | CC[C@H](C)[C@@H]1NC(=O)[C@H](Cc2ccccc2)NC(=O)[C@@H]2CCCN2C(=O)[C@@H]([C@H](C)O)NC(=O)[C@@H]2CCCN2C(=O)[C@H](CO)NC(=O)[C@H](C)NC1=O | 4.5 µM | 30 µM | 10 µM | 7.2 µM | 24 µM | > 100 µM | > 100 µM | > 128 µM | > 128 µM | > 128 µM | > 128 µM | > 128 µM | > 128 µM | > 128 µM | > 128 µM | > 128 µM | > 128 µM | 7.4 µM
4 | CC[C@H](C)[C@@H]1NC(=O)[C@H](Cc2ccccc2)NC(=O)[C@@H]2CCCN2C(=O)[C@H](Cc2ccc(O)cc2)NC(=O)[C@H](CCC(=O)O)NC(=O)[C@@H]2CCCN2C(=O)[C@@H]2CCCN2C1=O (HELM PEPTIDE1{E.Y.P.F.I.P.P}$PEPTIDE1,PEPTIDE1,1:R1-7:R2$$$V2.0) | 6.2 µM | 3.9 µM | 17 µM | 11 µM | 11 µM | > 100 µM | > 100 µM | > 128 µM | > 128 µM | > 128 µM | > 128 µM | > 128 µM | > 128 µM | > 128 µM | > 128 µM | > 128 µM | > 128 µM | 19 µM
5 | C[C@@H]1NC(=O)[C@H]([C@@H](C)O)NC(=O)[C@H](Cc2ccc(O)cc2)NC(=O)[C@@H]2CCCN2C(=O)[C@H](Cc2ccc(O)cc2)NC(=O)[C@H](CCCNC(=N)N)NC(=O)[C@@H]2CCCN2C(=O)[C@H](CC(N)=O)NC1=O [CYCLONELLIN] (HELM PEPTIDE1{A.N.P.R.Y.P.Y.T}$PEPTIDE1,PEPTIDE1,1:R1-8:R2$$$V2.0) | > 50 µM | > 50 µM | > 50 µM | > 50 µM | > 50 µM | > 100 µM | > 100 µM | > 128 µM | > 128 µM | > 128 µM | > 128 µM | > 128 µM | > 128 µM | > 128 µM | > 128 µM | > 128 µM | > 128 µM | > 50 µM
6 | COc1cc([C@@H]2c3cc4c(cc3[C@@H](O[C@@H]3O[C@@H]5CO[C@@H](C)O[C@H]5[C@H](O)[C@H]3O)[C@H]3COC(=O)[C@H]23)OCO4)cc(OC)c1O [ETOPOSIDE] | 0.68 µM | 1.3 µM | 4.4 µM | 0.93 µM | 0.43 µM | – | – | – | – | – | – | – | – | – | – | – | – | 0.72 µM
7 | CC[C@H](C)[C@@H]1NC(=O)[C@@H]2CCCN2C(=O)[C@H](Cc2ccccc2)NC(=O)[C@@H]2CCCN2C(=O)[C@H](Cc2ccc(O)cc2)NC(=O)[C@@H]2CCCN2C(=O)[C@H]([C@@H](C)CC)NC1=O [PHAKELLISTATIN 2] (HELM PEPTIDE1{F.P.I.I.P.Y.P}$PEPTIDE1,PEPTIDE1,1:R1-7:R2$$$V2.0) | 0.71 µM | 3.2 µM | 1.3 µM | 0.77 µM | 1.6 µM | > 100 µM | > 100 µM | > 128 µM | > 128 µM | > 128 µM | > 128 µM | > 128 µM | > 128 µM | > 128 µM | > 128 µM | > 128 µM | > 128 µM | 0.66 µM
8 | CC[C@H](C)[C@@H]1NC(=O)[C@H](Cc2ccccc2)NC(=O)[C@@H]2CCCN2C(=O)[C@H](Cc2ccccc2)NC(=O)[C@@H]2CCCN2C(=O)[C@H](CCC(N)=O)NC(=O)[C@@H]2CCCN2C(=O)[C@H](Cc2ccccc2)NC1=O [PHAKELLI STATIN 11] (HELM PEPTIDE1{F.I.F.P.Q.P.F.P}$PEPTIDE1,PEPTIDE1,1:R1-8:R2$$$V2.0) | 1.6 µM | 5.6 µM | 3.2 µM | 1.7 µM | 6.9 µM | > 100 µM | > 100 µM | > 128 µM | > 128 µM | > 128 µM | > 128 µM | > 128 µM | > 128 µM | > 128 µM | > 128 µM | > 128 µM | > 128 µM | 2.8 µM
9 | CC(C)C[C@@H]1NC(=O)[C@H](CO)NC(=O)[C@@H]2CCCN2C(=O)[C@H](Cc2ccc(O)cc2)NC(=O)[C@H](Cc2ccc(O)cc2)NC(=O)[C@@H]2CCCN2C(=O)[C@H](Cc2ccc(O)cc2)NC1=O (HELM PEPTIDE1{L.Y.P.Y.Y.P.S}$PEPTIDE1,PEPTIDE1,1:R1-7:R2$$$V2.0) | > 50 µM | > 50 µM | > 50 µM | > 50 µM | > 50 µM | > 100 µM | > 100 µM | > 128 µM | > 128 µM | > 128 µM | > 128 µM | > 128 µM | > 128 µM | > 128 µM | > 128 µM | > 128 µM | > 128 µM | > 50 µM
10 | CC[C@H](C)[C@@H]1NC(=O)[C@@H]2CCCN2C(=O)[C@@H]2CCCN2C(=O)[C@H]([C@@H](C)CC)NC(=O)[C@H](Cc2ccc(O)cc2)NC(=O)[C@@H]2CCCN2C(=O)[C@@H]2CCCN2C(=O)[C@H](CC(C)C)NC(=O)[C@H](C(C)C)NC(=O)[C@H](Cc2ccccc2)NC1=O (HELM PEPTIDE1{F.V.L.P.P.Y.I.P.P.I}$PEPTIDE1,PEPTIDE1,1:R1-10:R2$$$V2.0) | 0.1 µM | 0.29 µM | 2.5 µM | 2.3 µM | 1.7 µM | > 100 µM | > 100 µM | > 128 µM | > 128 µM | > 128 µM | > 128 µM | > 128 µM | > 128 µM | > 128 µM | > 128 µM | > 128 µM | > 128 µM | 0.54 µM
11 | CC[C@H](C)[C@@H]1NC(=O)[C@@H]2CCCN2C(=O)[C@H](Cc2ccc(O)cc2)NC(=O)[C@@H]2CCCN2C(=O)[C@H]([C@@H](C)CC)NC(=O)[C@@H]2CCCN2C(=O)[C@H](Cc2ccccc2)NC1=O (HELM PEPTIDE1{F.P.I.P.Y.P.I}$PEPTIDE1,PEPTIDE1,1:R1-7:R2$$$V2.0) | 3.9 µM | 33 µM | 9.1 µM | 7.7 µM | 37 µM | > 100 µM | > 100 µM | > 128 µM | > 128 µM | > 128 µM | > 128 µM | > 128 µM | > 128 µM | > 128 µM | > 128 µM | > 128 µM | > 128 µM | 6.7 µM
12 | CC[C@H](C)[C@@H]1NC(=O)[C@H](C)NC(=O)[C@H](CC[S+](C)[O-])NC(=O)[C@H](C)NC(=O)[C@H](CC(N)=O)NC(=O)[C@H](Cc2ccccc2)NC(=O)[C@@H]2CCCN2C1=O (some centres undefined) (HELM PEPTIDE1{A.I.P.F.N.A.[CS(=O)CC[C@H](N[*:1])C(=O)[*:2]]}$PEPTIDE1,PEPTIDE1,1:R1-7:R2$$$V2.0) | 12 µM | 11 µM | 12 µM | 13 µM | 12 µM | > 100 µM | > 100 µM | > 128 µM | > 128 µM | > 128 µM | > 128 µM | > 128 µM | > 128 µM | > 128 µM | > 128 µM | > 128 µM | > 128 µM | 15 µM
